{"source": "patent US11452758B2", "about": "“Antimicrobial peptide derived from LL37 peptide and uses thereof” (INDUSTRY-ACADEMIC COOPERATION FOUNDATION, CHOSUN UNIVERSITY, priority 2018, dated 2022)", "assay_type_in_all_cases": "cell-based", "key": {"mouse erythrocytes": {"tested_on": "mouse erythrocytes", "assay": "Hemolytic activity", "settings": "1 hour at 37° C.", "method": "To compare the cytotoxicity among the peptides that are produced by the method of Example 1, erythrocyte hemolytic activity of the synthesized peptide was measured.\nSpecifically, erythrocytes of a mouse (Balb/c, 6 week old, female) were diluted in PBS (pH 7.0) to have concentration of 8%, and then subjected to a treatment with LL37, LL37-1, LL37-2, LL37-3 or LL37-4, to have concentration of 1.56, 3.13, 6.25, 12.5, 25.0, 50.0 or 100.0 μM/well for each followed by a reaction for 1 hour at 37° C. After that, the amount of hemoglobin contained in a supernatant collected by centrifuge at 1,000×g was determined by measuring the absorbance at a wavelength of 414 nm. As a control group to be used as a reference for cell disruption level, the supernatant collected by a treatment with 1% Triton X-100 (Sigma, USA) and a reaction for 1 hour at 37° C. was used to measure the absorbance. By setting the resulting absorbance value at 100% of the hemolytic activity, hemolysis of each peptide was calculated using the following formula. Erythrocyte disrupting ability (%)=(Absorbance A−Absorbance B)/(Absorbance C−Absorbance B)×100 (in the above formula, Absorbance A indicates the absorbance of a reaction solution treated with each peptide, in which the absorbance is measured at a wavelength of 414 nm; Absorbance B indicates the absorbance of a reaction solution treated with PBS, in which the absorbance is measured at a wavelength of 414 nm; and Absorbance C indicates the absorbance of a reaction solution treated with 1% Triton X-100, in which the absorbance is measured at a wavelength of 414 nm)."}, "[1]": {"tested_on": "normal human fibroblast cell line (Hs27)", "assay": "Cytotoxicity in normal cell line (MTT)", "settings": "Hs27; peptide 32 μM; 24 hours; MTT", "method_in_brief": "(§1)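 HaCaT and Hs27 cells (1×10^4/well, DMEM with 10% FBS) were seeded 24 h, then exposed 24 h to peptides at 0.5–32 μM. Viability was measured by MTT reduction (1 h), with DMSO-dissolved formazan read at 570 nm.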"}, "[2]": {"tested_on": "normal human keratinocyte cell line (HaCaT)", "assay": "Cytotoxicity in normal cell line (MTT)", "settings": "HaCaT; peptide 32 μM; 24 hours; MTT", "method_in_brief": "as §1"}, "[3]": {"tested_on": "Acinetobacter baumannii KCTC 2508", "settings": "A. baumannii KCTC 2508", "method": "To determine the antimicrobial activity of peptides prepared by the method of above Example 1 in the presence of different ions in living body, minimal inhibitory concentration (MIC), i.e., lowest concentration of a peptide not allowing bacterial cell division, was measured.\nSpecifically, among the bacterial strains that are described in the above Table 2, Acinetobacter baumannii KCTC 2508 cells were cultured to a mid-log phase in MHB (Mueller Hinton Broth) medium, and, after diluting LL37-2 or LL37-4 peptide synthesized in the above Example 1 in a solution containing different kind of ions (sodium chloride, calcium chloride, magnesium chloride, and iron chloride) at different concentration, it was added to the plate in an amount of 50 μl per plate. After that, the cultured cells were diluted to cell concentration of 2×10^5 cells/50 μl, inoculated to a microtiter plate (NUNC, USA), and then cultured again for 18 hours at 37° C. By using a microtiter plate reader (Merck Elisa reader, Germany), absorbance at wavelength of 600 nm was measured and MIC value was determined for each strain. As a control, the MIC values of LL37, LL37-2 and LL37-4 for Acinetobacter baumannii KCTC 2508, which are shown in the above Table 3, were used."}}, "note": "Where two headings read alike, the source gives them in different places. Where a SMILES comes first, the peptide text is derived from it.", "data": [{"smiles": "CC[C@H](C)[C@H](NC(=O)[C@H](CCCNC(=N)N)NC(=O)[C@H](CCC(N)=O)NC(=O)[C@@H](NC(=O)[C@@H](NC(=O)[C@H](CCCNC(=N)N)NC(=O)[C@H](CCCCN)NC(=O)[C@H](Cc1ccccc1)NC(=O)[C@H](CCCCN)NC(=O)[C@@H](N)CCCCN)[C@@H](C)CC)C(C)C)C(=O)N[C@@H](CCCCN)C(=O)N[C@@H](CC(=O)O)C(=O)N[C@@H](Cc1ccccc1)C(=O)N[C@@H](CC(C)C)C(=O)N[C@@H](CCCNC(=N)N)C(=O)N[C@@H](CC(N)=O)C(N)=O", "note": "[LL37-2, KKFKRIVQRIKDFLRN-NH2] (H-KKFKRIVQRIKDFLRN-NH2)", "values": [{"measurement": "Erythrocyte disrupting ability", "setting": "mouse erythrocytes; peptide 1.56 μM", "value": 0, "unit": "%"}, {"measurement": "Erythrocyte disrupting ability", "setting": "mouse erythrocytes; peptide 3.13 μM", "value": 0, "unit": "%"}, {"measurement": "Erythrocyte disrupting ability", "setting": "mouse erythrocytes; peptide 6.25 μM", "value": 1, "unit": "%"}, {"measurement": "Erythrocyte disrupting ability", "setting": "mouse erythrocytes; peptide 12.5 μM", "value": 1, "unit": "%"}, {"measurement": "Erythrocyte disrupting ability", "setting": "mouse erythrocytes; peptide 25 μM", "value": 1, "unit": "%"}, {"measurement": "Erythrocyte disrupting ability", "setting": "mouse erythrocytes; peptide 50 μM", "value": 1, "unit": "%"}, {"measurement": "Cell survival ability", "setting": "[1]", "value": 97, "unit": "%"}, {"measurement": "Cell survival ability", "setting": "[2]", "value": 107, "unit": "%"}, {"measurement": "Minimal inhibitory concentration of antimicrobial peptide", "setting": "[3]; Calcium chloride 1.25 mM", "value": 4, "unit": "µM"}, {"measurement": "Minimal inhibitory concentration of antimicrobial peptide", "setting": "[3]; Calcium chloride 2.5 mM", "value": 4, "unit": "µM"}, {"measurement": "Minimal inhibitory concentration of antimicrobial peptide", "setting": "[3]; Calcium chloride 5 mM", "value": 8, "unit": "µM"}, {"measurement": "Minimal inhibitory concentration of antimicrobial peptide", "setting": "[3]; Iron chloride 2 mM", "value": 4, "unit": "µM"}, {"measurement": "Minimal inhibitory concentration of antimicrobial peptide", "setting": "[3]; Iron chloride 4 mM", "value": 4, "unit": "µM"}, {"measurement": "Minimal inhibitory concentration of antimicrobial peptide", "setting": "[3]; Iron chloride 8 mM", "value": 4, "unit": "µM"}, {"measurement": "Minimal inhibitory concentration of antimicrobial peptide", "setting": "[3]; Magnesium chloride 0.5 mM", "value": 4, "unit": "µM"}, {"measurement": "Minimal inhibitory concentration of antimicrobial peptide", "setting": "[3]; Magnesium chloride 1 mM", "value": 4, "unit": "µM"}, {"measurement": "Minimal inhibitory concentration of antimicrobial peptide", "setting": "[3]; Magnesium chloride 2 mM", "value": 4, "unit": "µM"}, {"measurement": "Minimal inhibitory concentration of antimicrobial peptide", "setting": "[3]; Sodium chloride 50 mM", "value": 8, "unit": "µM"}, {"measurement": "Minimal inhibitory concentration of antimicrobial peptide", "setting": "[3]; Sodium chloride 100 mM", "value": 16, "unit": "µM"}, {"measurement": "Minimal inhibitory concentration of antimicrobial peptide", "setting": "[3]; Sodium chloride 150 mM", "value": 32, "unit": "µM"}]}]}
